Experimental data: ChEMBL document CHEMBL1134508, “3-(4-aroyl-1H-pyrrol-2-yl)-N-hydroxy-2-propenamides, a new class of synthetic histone deacetylase inhibitors” (J Med Chem, 2001)
Square brackets hold non-standard residues; d marks the D form. Peptide text beside a SMILES is read from it. Aoe = N[C@@H](CCCCCC(=O)[C@@H]1CO1)C(=O)O

What was measured:
[1] = molecular target: T1, Histone deacetylase HD2 (Zea mays) (UniProt Q94F81); experiment: Percent inhibition of histone deacetylase activity at 30 uM
T1 sequence (whole entry): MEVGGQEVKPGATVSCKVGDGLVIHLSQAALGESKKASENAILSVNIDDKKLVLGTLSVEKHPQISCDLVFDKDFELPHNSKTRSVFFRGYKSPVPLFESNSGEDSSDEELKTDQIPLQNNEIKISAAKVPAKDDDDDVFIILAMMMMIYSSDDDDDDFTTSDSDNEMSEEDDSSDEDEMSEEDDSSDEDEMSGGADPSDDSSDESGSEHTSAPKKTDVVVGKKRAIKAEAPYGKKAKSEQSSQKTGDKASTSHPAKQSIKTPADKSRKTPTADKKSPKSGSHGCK

Histone deacetylase HD2 [2] = molecular target: T2, Histone deacetylase HD2 (Zea mays, UniProt Q94F81); experiment: Inhibitory concentration against histone deacetylase activity
T2 sequence (Q94F81 whole entry): T1 sequence (whole entry)

Histone deacetylase HD2 [3] = molecular target: T2, Histone deacetylase HD2; experiment: Experimental anti-HDAC (anti-histone deacetylase) activity of the compound
[4] = molecular target: T1, Histone deacetylase HD2 (Zea mays); experiment: Percent inhibition of histone deacetylase activity at 5 mM

inhibition [1] [%]	IC50 (Histone deacetylase HD2 [2]) [nM]	Ki (Histone deacetylase HD2 [3]) [nM]	inhibition [4] [%]	SMILES
0.2				Cn1cc(C(=O)c2ccccc2)cc1/C=C/C(=O)NN
84	3800	2290		Cn1cc(C(=O)c2ccc(F)cc2)cc1/C=C/C(=O)NO
45	36800	4.37		Cn1cc(C(=O)c2ccccc2)cc1CCC(=O)NO
86	3800	2290		Cn1cc(C(=O)c2ccccc2)cc1/C=C/C(=O)NO
87	2400	1450		Cn1cc(C(=O)c2ccc(Cl)cc2)cc1/C=C/C(=O)NO
88	2400	1450		CN(C)c1ccc(C(=O)c2cc(/C=C/C(=O)NO)n(C)c2)cc1
0.9				Cn1cc(C(=O)c2ccccc2)cc1/C=C/C(=O)NCCO
86.4	1900	1120		Cc1ccc(C(=O)c2cc(/C=C/C(=O)NO)n(C)c2)cc1
78	3900	2340		Cn1cc(C(=O)c2ccc([N+](=O)[O-])cc2)cc1/C=C/C(=O)NO
75.2	2900	1740		COc1ccc(C(=O)c2cc(/C=C/C(=O)NO)n(C)c2)cc1
			35	CCCC(=O)[O-].[Na+]
		132		O=C(CCCCCCC(=O)Nc1ccccc1)NO [VORINOSTAT]

SMILES	inhibition [1] [%]	IC50 (Histone deacetylase HD2 [2]) [nM]	Ki (Histone deacetylase HD2 [3]) [nM]	inhibition [4] [%]
O=C1N[C@@H](Cc2ccccc2)C(=O)N2CCC[C@@H]2C(=O)N[C@@H](CCCCCC(=O)[C@@H]2CO2)C(=O)N[C@H]1Cc1ccccc1 [TRAPOXIN B] (cyclo(FF[dP][Aoe]))		10		
